Experimental findings from patent US20170105960A1, “Prodrugs of Succinic Acid for Increasing ATP Production” (NEUROVIVE PHARMACEUTICAL AB, priority 2014, published 2017) are described below.

Molecules are shown by their SMILES. Entries after “also recorded” stand apart in the source; their conditions may differ.

The test system of data set [1] is intact cells. Kind of data set: Screening assay 3: assay to assess uncoupling in intact cells (high-resolution respirometry). To be noted: for Convergent (Routine): increase in mitochondrial oxygen consumption induced by the compound, screening assay 3, 1 mM compound; for Uncoupling: level of oxygen consumption after addition of oligomycin, screening assay 3. It counts as cell-based, human. The arrangement: key: The response in each parameter is graded either +, ++ or +++ in increasing order of potency; The response in each parameter is graded either +, ++ or +++ in increasing order of potency; The response in each parameter is graded either +, ++ or +++ in increasing order of potency; (+): Brackets [( )] indicate an intermediate effect, i.e. (+++) is between ++ and +++. How it is done:
In the third protocol, the same buffer as described above is used. […] Subsequently, the ATP-synthase-inhibitor Oligomycin is added. A reduction in respiration is a measure of how much of the oxygen consumption that is coupled to ATP synthesis. No, or only a slight, reduction indicate that the compound is inducing a proton leak over the inner mitochondrial membrane. The uncoupler FCCP is then titrated to induce maximum uncoupled respiration. […] The experiment is terminated by the addition of 1 μg/mL of the complex III inhibitor Antimycin to measure non-mitochondrial oxygen consumption.

The subject of data set [2] is cells with inhibited respiratory complex I. Briefly: Screening assay 1: enhancement of mitochondrial energy producing function in cells with inhibited respiratory complex I. Format: cell-based, human. Set-up: key: The response in each parameter is graded either +, ++ or +++ in increasing order of potency; The response in each parameter is graded either +, ++ or +++ in increasing order of potency; The response in each parameter is graded either +, ++ or +++ in increasing order of potency; (+): Brackets [( )] indicate an intermediate effect, i.e. (+++) is between ++ and +++. The following applies: increase in mitochondrial oxygen consumption in cells with inhibited complex I. The protocol:
(§1) Measurement of mitochondrial respiration is performed in a high-resolution oxygraph (Oxygraph—2k, Oroboros Instruments, Innsbruck, Austria) at a constant temperature of 37° C. Isolated human platelets, white blood cells, fibroblasts, human heart muscle fibers or other cell types containing live mitochondria are suspended in a 2 mL glass chamber at a concentration sufficient to yield oxygen consumption in the medium of ≧10 pmol O2 s^−1 mL^−1.
Cells are placed in a buffer containing 110 mM sucrose, HEPES 20 mM, taurine 20 mM, K-lactobionate 60 mM, MgCl2 3 mM, KH2PO4 10 mM, EGTA 0.5 mM, BSA 1 g/l, pH 7.1. […] Compounds dissolved in DMSO are titrated in a range of 10 μM to 10 mM final concentration. Subsequently, cell membranes are permeabilised with digitonin (1 mg/1*10^6 plt) to allow entry of extracellularly released energy substrate or cell impermeable energy substrates. After stabilized respiration, Succinate 10 mM is added as a reference to enable respiration downstream of complex I. After the respiration stabilized the experiment is terminated by addition of Antimycin at final concentration 1 μg/mL and any residual non-mitochondrial oxygen consumption is measured. An increase in respiration rate in the described protocol is tightly coupled to ATP synthesis by oxidative phosphorylation unless cells are uncoupled (i.e. proton leak without production of ATP). […]

Data set [3] relates to intact cells. Briefly: Screening assay 2: enhancement and inhibition of mitochondrial energy producing function in intact cells (FCCP uncoupled). Format: cell-based, human. The arrangement: key to Convergent (FCCP): The response in each parameter is graded either +, ++ or +++ in increasing order of potency; The response in each parameter is graded either +, ++ or +++ in increasing order of potency; The response in each parameter is graded either +, ++ or +++ in increasing order of potency; (+): Brackets [( )] indicate an intermediate effect, i.e. (+++) is between ++ and +++. The following applies: for Convergent (FCCP): increase in mitochondrial oxygen consumption, screening assay 2, uncoupled conditions; for Toxicity: lowest concentration during compound titration at which a decrease in oxygen consumption is seen, screening assay 2. The protocol: as §1
In the second protocol the same buffer is used as described above. After basal respiration is established, the mitochondrial uncoupler FCCP is added at a concentration of 2 nM to increase metabolic demand.

Data set [4] relates to Intact human blood cells with inhibited complex I. Briefly: Screening assay 4: enhancement of mitochondrial energy producing function in cells with inhibited respiratory complex I in human plasma. It counts as cell-based. The arrangement: key: The response in each parameter is graded either +, ++ or +++ in increasing order of potency; The response in each parameter is graded either +, ++ or +++ in increasing order of potency; The response in each parameter is graded either +, ++ or +++ in increasing order of potency; (+): Brackets [( )] indicate an intermediate effect, i.e. (+++) is between ++ and +++. To be noted: increase in mitochondrial oxygen consumption. How it is done:
as §1
Intact human blood cells are incubated in plasma from the same donor. […] Compounds dissolved in DMSO are titrated in a range of 10 μM to 10 mM final concentration. The experiment is terminated by addition of Antimycin at final concentration 1 μg/mL and any residual non-mitochondrial oxygen consumption is measured.

Data set [5] relates to intact cells. Kind of data set: Assays exemplified for enhancement of mitochondrial energy producing function (not specified which). It counts as cell-based, human. How it is done:
An increase in respiration rate in the described protocol is tightly coupled to ATP synthesis by oxidative phosphorylation unless cells are uncoupled (i.e. proton leak without production of ATP). Uncoupling is tested for by addition of the ATP synthase inhibitor oligomycin (1-2 μg mL^−1) in a protocol 3 where the extent of uncoupling corresponds to the respiratory rate following oligomycin addition. In the second protocol the same buffer is used as described above. […] In the third protocol, the same buffer as described above is used. […] Subsequently, the ATP-synthase-inhibitor Oligomycin is added. A reduction in respiration is a measure of how much of the oxygen consumption that is coupled to ATP synthesis. No, or only a slight, reduction indicate that the compound is inducing a proton leak over the inner mitochondrial membrane. The uncoupler FCCP is then titrated to induce maximum uncoupled respiration. […] The experiment is terminated by the addition of 1 μg/mL of the complex III inhibitor Antimycin to measure non-mitochondrial oxygen consumption. Intact human blood cells are incubated in plasma from the same donor. […] The experiment is terminated by addition of Antimycin at final concentration 1 μg/mL and any residual non-mitochondrial oxygen consumption is measured.

In data set [6] the test system is intact human platelets. Briefly: Intervention on rotenone- or metformin-induced lactate production with cell-permeable succinate prodrugs. It counts as cell-based. The following applies: for effect on metformin-induced lactate production: 10 mM metformin, consecutive additions of 250 μM each 30 minutes; for effect on rotenone-induced lactate production: rotenone 2 μM, repeated additions of 250 μM each 30 minutes. The protocol: (§2) Lactate levels are determined every 2 h using the Lactate Pro™ 2 blood lactate test meter (Arkray, Alere AB, Lidingö, Sweden) or similar types of measurements. Incubation is performed at 37° C. pH is measured at start, after 4 and after 8 h (or more frequently) of incubation using a Standard pH Meter, e.g. PHM210 (Radiometer, Copenhagen, Denmark). Drug candidates are added to the assay from start or following 30-60 min at concentrations within the range 10 μM-5 mM. […] In order to evaluate the specificity of the drug candidate, it is also tested in combination with a down-stream inhibitor of respiration such as the complex III inhibitor Antimycin at 1 μg/mL, which should abolish the effect of the drug candidate and restore the production of lactate. The use of antimycin is therefore also a control for undue effects of drug candidates on the lactate producing ability of the cells used in the assay.
Lactate levels were measured in intervals of 30 min with the onset of the experiment.

The next data set relates to intact PBMCs. Kind of data set: Lactate release of intact PBMCs. To be noted: 10 mM metformin, data not shown. It counts as cell-based, human.
The test system of data set [7] is permeabilized human peripheral blood mononuclear cells. Briefly: Mitochondrial respiration in permeabilized human PBMCs (respirometry). It counts as cell-based. To be noted: PBMC, read-out: IC50 (OXPHOSCI respiration).
Experimental: Real-time respirometric measurements were performed using high-resolution oxygraphs (Oxygraph-2k, Oroboros Instruments, Innsbruck, Austria). The experimental conditions during the measurements were the following: 37° C., 2 mL active chamber volume and 750 rpm stirrer speed. […] Settings, daily calibration and instrumental background corrections were conducted according to the manufacturer's instructions. […] All measurements were performed at a platelet concentration of 200×10^6 cells per mL or a PBMC concentration of 5×10^6 cells per mL. […] Maximal uncoupled respiratory electron transport system capacity supported by convergent input through complex I and […] ) was evaluated by subsequent titration with the protonophore carbonyl-cyanide p-(trifluoromethoxy) phenylhydrazone (FCCP). […] The complex III inhibitor antimycin (1 μg mL^-1) was then given to reveal residual oxygen consumption (ROX). […] Complex IV activity was calculated by subtracting the sodium azide value from the TMPD value. With exception of complex IV activity, all respiratory states were measured at steady-state and corrected for ROX. Complex IV activity was measured after ROX determination and not at steady-state.
For data set [8], the system named is intact human platelets. Kind of data set: Mitochondrial respiration in intact human platelets (respirometry). Format: cell-based. To be noted: for routine respiration change after 60 min: compared to first measurement after addition. How it is done: (§3) Lactate production of intact human platelets was determined in PBS containing 10 mM glucose.
Routine respiration was followed for 60 min at 37° C. before the ATP-synthase inhibitor oligomycin (1 μg mL^−1) was added to assess LEAK respiration. Maximal uncoupled respiratory electron transport system capacity supported by endogenous substrates (ETS) was reached by titration of FCCP.

Data set [9] relates to permeabilized human platelets. The protocol: as §3
Subsequently the FADH2-linked substrate succinate (10 mM) was given to determine convergent complex I- and II-dependent OXPHOS capacity (OXPHOSCI+II). […] Finally, the artificial complex IV substrate N,N,N′,N′-tetramethyl-p-phenylenediamine dihydrochloride (TMPD, 0.5 mM) was added and the complex IV inhibitor sodium azide (10 mM) was given to measure complex IV activity and chemical background, respectively.

Data set [10] relates to intact human platelets. Briefly: Lactate production and pH of intact human platelets. It counts as cell-based. The following applies: metformin 1 and 10 mM, phenformin 0.5 mM, rotenone 2 μM. The protocol:
as §2
Incubation was performed at 37° C. at a stirrer speed of 750 rpm, and pH was measured at start, after 4 and after 8 h of incubation (n=4) using a PHM210 Standard pH Meter (Radiometer, Copenhagen, Denmark).

Where [11] appears, read: 10 mM metformin plus prodrug, 250 μM each 30 minutes.

For the compound `CC(=O)OC(CCCOC(=O)CCC(=O)O)OC(=O)CCC(=O)O` (stereo not shown) [01-134], in the data set on intact cells [1], the “Convergent (Routine)” value is recorded as “++” and the Uncoupling result was “(+)”. Moreover, the CII result in data set [2] is given as “(+)”. Besides, in the data set with intact cells [3], the “Convergent (FCCP)” value is “(+)” and the Toxicity is 10 mM. In data set [4], the “CII (plasma)” value was “(+)”.
For the compound `CC(=O)OC(CCCN1C(=O)c2ccccc2C1=O)OC(=O)CCC(=O)O` (stereo not shown) [01-150, 4-(1-acetoxy-4-(1,3-dioxoisoindolin-2-yl)butoxy)-4-oxobutanoic acid], in the data set with intact cells [1], the “Convergent (Routine)” value is on record as “+++” and the Uncoupling entry is reported as “(+)”. Moreover, the CII result in [2] is “++”. In the data set on intact cells [3], the “Convergent (FCCP)” value is “+” and the Toxicity is 2 mM. For the same compound, the “CII (plasma)” value in data set [4] is “(+)”.
As for `CCOC(=O)CCC(=O)OCC` [Diethyl succinate], the “activity in the assays exemplified” value in the data set with intact cells [5] was “inactive”.
Turning to `CC(=O)OCOC(=O)CCC(=O)OCOC(C)=O` [NV118], the “rate of lactate production” value in the data set on intact human platelets [6] (setting [11]) is reported as 0.43 mmol lactate (200·10^9 trc·h)^−1. For the same compound, in the data set with intact human platelets [6], the “effect on metformin-induced lactate production” value is recorded as “significantly decreased” and the “effect on rotenone-induced lactate production” value was “attenuated”.
On to `CC(=O)OC(C)OC(=O)CCC(=O)OC(C)OC(C)=O` (stereo not shown) [NV189], for which the “rate of lactate production” value with intact human platelets [6] (setting [11]) was 0.55 mmol lactate (200·10^9 trc·h)^−1. In addition, in the data set with intact human platelets [6], the “effect on metformin-induced lactate production” value is “significantly decreased” and the “effect on rotenone-induced lactate production” value is listed as “attenuated; also recorded: brought back to normal”. Moreover, in the data set with intact human platelets [6] (rotenone 2 μM plus antimycin 1 μg/mL plus prodrug), the “rate of lactate production” value is 0.89 mmol lactate (200·10^6trc·h)^−1.
Take `CC(=O)OCOC(=O)CCC(=O)OC(C)OC(C)=O` (stereo not shown) [NV241]: the “rate of lactate production” value with intact human platelets [6] (setting [11]) is on record as 0.43 mmol lactate (200·10^9 trc·h)^−1. Also, in the data set on intact human platelets [6], the “effect on metformin-induced lactate production” value is given as “significantly decreased” and the “effect on rotenone-induced lactate production” value is “attenuated”.
On to `COC(=O)CCC(=O)OC` [dimethyl succinate], for which the “activity in the assays exemplified” value with intact cells [5] was “inactive”.
As to `CN(C)C(=N)N=C(N)N` [metformin], the lactate release result in the data set with intact PBMCs is “increased lactate release”. In data set [7], the IC50 amounted to 450 µM. Also, the “routine respiration change after 60 min” value with intact human platelets [8] (1 mM) is −17.27%; in the data set with intact human platelets [8] (10 mM) it was −28.61%; with intact human platelets [8] (100 mM) it was −81.78%. Besides, the “routine respiration reduction after whole blood incubation” value in the data set with intact human platelets [8] (1 mM, whole blood incubated over 18 h before platelet isolation) is listed as 30.49%. Also, the “routine respiration change after 15 min compared to control” value in the data set on intact human platelets [8] (100 mM, 15 min of exposure) is listed as −39.77%.
Consider `COC(=O)CCC(=O)O` [monomethyl succinate], for which the “activity in the assays exemplified” value in the data set with intact cells [5] was “inactive”.
Regarding `[H]/N=C(/N)N/C(=N/[H])NCCc1ccccc1` [phenformin], the “ETSCII capacity and complex IV activity” value in [9] (compared to controls) is recorded as “not ETSCII or respiration specific to complex IV”. The “fold more potent inhibition of OXPHOSCI than metformin” value in [9] (phenformin versus metformin) is listed as 20 fold. Further, in data set [9] (read-out: IC50 (OXPHOSCI respiration), complex I substrates), the IC50 was found to be 58 µM. In addition, in the data set on intact human platelets [10], the “lactate production over 8 h compared to control” value is given as “significantly more lactate”.
As to `O=C(O)CCC(=O)O` [succinate, reference compound], in the data set with intact human platelets [6], the “effect on metformin-induced lactate production” value was “did not reduce the metformin-induced production of lactate; also recorded: did not change this”.
